Experimental data taken from ChEMBL document CHEMBL1201862, “PubChem BioAssay data set” (2004).
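Each compound was tested at five concentrations against cells in 96-well plates for 48 hours. At the GI50, growth is halved.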 Activity calls are given as the source filed them. No stated cut-off is given here; in the data, active = GI50 up to about 1.1 µM and inactive = higher. Where a SMILES comes first, the peptide text is derived from it. [ ]: non-standard residue; d: D form. The star is where a group is joined. NMeF = CN[CH](Cc1ccccc1)C(=O)O; NMeV = CN[CH](C(=O)O)C(C)C; Boc = CC(C)(C)OC(=O)*; OBn = c1ccc(CO*)cc1

Tests used:
Experiment in all cases: inhibition of tumour cell growth, NCI panel, 48 h
DLD-1 = tested on: DLD-1
M19-MEL = tested on: M19-MEL
DMS-114 = tested on: DMS-114
SNB-78 = tested on: SNB-78
HOP-18 = tested on: HOP-18
DMS-273 = tested on: DMS-273
KM-20L2 = tested on: KM-20L2
RXF 631 = tested on: RXF 631
XF498 = tested on: XF498

| SMILES | GI50 (DLD-1) | GI50 (M19-MEL) | GI50 (DMS-114) | GI50 (SNB-78) | GI50 (HOP-18) | GI50 (DMS-273) | GI50 (KM-20L2) | GI50 (RXF 631) | GI50 (XF498) |
| --- | --- | --- | --- | --- | --- | --- | --- | --- | --- |
| CCC1(CC)C(=O)NC(=O)NC1=S | > 100 µM (inactive) | > 100 µM (inactive) | > 100 µM (inactive) | > 100 µM (inactive) | > 100 µM (inactive) | > 100 µM (inactive) | > 100 µM (inactive) |  |  |
| COc1ccc(NC(=O)CC2SC(Nc3ccc(Cl)cc3C)=NC2=O)c([N+](=O)[O-])c1 (centres undefined) | > 100 µM (inactive) | > 100 µM (inactive) | > 100 µM (inactive) | > 100 µM (inactive) |  | > 100 µM (inactive) | > 100 µM (inactive) | > 100 µM (inactive) |  |
| c1ccc(CNn2nnc3ccccc32)cc1 | > 100 µM (inactive) | > 100 µM (inactive) | > 100 µM (inactive) | > 100 µM (inactive) |  | > 100 µM (inactive) | > 100 µM (inactive) |  | > 100 µM (inactive) |
| O=c1c2c(c1=O)-c1ccccc1CN2 | > 100 µM (inactive) | > 100 µM (inactive) | > 100 µM (inactive) | > 100 µM (inactive) |  | > 100 µM (inactive) | > 100 µM (inactive) |  | 20.6 µM (inactive) |
| CC(C)OP(=O)(OC(C)C)/C(=N/Nc1ccccc1[N+](=O)[O-])NCCN/C(=N\Nc1ccccc1[N+](=O)[O-])P(=O)(OC(C)C)OC(C)C | 34 µM (inactive) | 34.9 µM (inactive) | 31.7 µM (inactive) |  |  | 35.2 µM (inactive) | 24.9 µM (inactive) |  |  |
| COc1ccc([C@@H]2CC(=O)NCCCNCCCCNCCCN2)cc1 | > 100 µM (inactive) | > 100 µM (inactive) | > 100 µM (inactive) | > 100 µM (inactive) | 59.6 µM (inactive) | > 100 µM (inactive) | > 100 µM (inactive) |  | > 100 µM (inactive) |
| [O-][n+]1c2c([n+]([O-])c3ccccc31)CCCCCCCCCC2 | > 100 µM (inactive) | > 100 µM (inactive) |  | > 100 µM (inactive) |  | > 100 µM (inactive) | 17.5 µM (inactive) |  | > 100 µM (inactive) |
| O=P1(Oc2ccccc2)C(c2ccccc2)C(c2ccccc2)=NN1c1ccccc1 (centres undefined) | 18.3 µM (inactive) | 23.1 µM (inactive) | 19.5 µM (inactive) | 46.5 µM (inactive) | 44.1 µM (inactive) | 30.3 µM (inactive) | 20.7 µM (inactive) | 35.4 µM (inactive) | 43.2 µM (inactive) |
| O=C(O)c1ccc(C2C3C=CC(C3)C2[N+](=O)[O-])cc1 (centres undefined) | > 100 µM (inactive) | > 100 µM (inactive) | > 100 µM (inactive) | > 100 µM (inactive) |  | > 100 µM (inactive) | > 100 µM (inactive) | > 100 µM (inactive) | > 100 µM (inactive) |
| C=C(NC(=O)C(=C)NC(=O)c1csc(C2=NC3c4csc(n4)C4NC(=O)c5csc(n5)C(C(C)(O)C(C)O)NC(=O)C5CSC(=N5)/C(=C/C)NC(=O)C(C(C)O)NC(=O)c5csc(n5)C3(CC2)NC(=O)C(C)NC(=O)C(=C)NC(=O)C(C)NC(=O)C(C(C)CC)NC2C=Cc3c(C(C)O)cc(nc3C2O)C(=O)OC4C)n1)C(N)=O (centres undefined) | 1.76 µM (inactive) | 1.37 µM (inactive) | 2.72 µM (inactive) | 2.54 µM (inactive) | 2.72 µM (inactive) | 1.37 µM (inactive) | 2.84 µM (inactive) | 3.61 µM (inactive) | 0.355 µM (active) |
| O=Cc1ccccc1COC(=O)c1cc(C(=O)OCc2ccccc2C=O)c(C(=O)OCc2ccccc2C=O)cc1C(=O)OCc1ccccc1C=O | > 100 µM (inactive) | > 100 µM (inactive) | 49.4 µM (inactive) | 40.7 µM (inactive) | > 100 µM (inactive) | 30.3 µM (inactive) | > 100 µM (inactive) |  | > 100 µM (inactive) |
| Cc1c(C)c([N+](=O)[O-])c2c(c1N)C(=O)c1ccccc1C2=O | > 100 µM (inactive) | 90.8 µM (inactive) | > 100 µM (inactive) | > 100 µM (inactive) | 33 µM (inactive) | > 100 µM (inactive) | > 100 µM (inactive) |  | > 100 µM (inactive) |
| C[C@H]1CC(=O)C2=CCCC3(SCCCS3)[C@@H]2[C@H]1CO | > 100 µM (inactive) | 78.5 µM (inactive) | > 100 µM (inactive) |  | > 100 µM (inactive) | > 100 µM (inactive) |  | > 100 µM (inactive) | > 100 µM (inactive) |
| CC(=O)O[C@]12CCCC1C1(O)C(O)CCCC12 (some centres undefined) |  | > 100 µM (inactive) | > 100 µM (inactive) | > 100 µM (inactive) | > 100 µM (inactive) | > 100 µM (inactive) | > 100 µM (inactive) |  | > 100 µM (inactive) |
| O=C1C2c3[nH]c4ccccc4c3C3CCCCC3C2C(=O)N1c1ccccc1 (centres undefined) | > 100 µM (inactive) | > 100 µM (inactive) | > 100 µM (inactive) | 38.3 µM (inactive) | 37.2 µM (inactive) | 85.3 µM (inactive) |  | > 100 µM (inactive) |  |
| N#C/C(=C\c1ccc2ccccc2c1)C(=O)c1ccccc1 | > 100 µM (inactive) | > 87.9 µM (inactive) | > 100 µM (inactive) | > 100 µM (inactive) | > 100 µM (inactive) | > 100 µM (inactive) | > 100 µM (inactive) |  | > 100 µM (inactive) |
| Cc1nc(-c2cccnc2)sc1C(=O)/C=C/c1ccc(Cl)cc1Cl | > 100 µM (inactive) | > 100 µM (inactive) | 84.3 µM (inactive) | > 100 µM (inactive) | > 100 µM (inactive) | > 100 µM (inactive) | > 100 µM (inactive) |  |  |
| O=c1ncccn1C1OC(CO)C(O)C1O (centres undefined) | > 100 µM (inactive) | > 100 µM (inactive) | > 100 µM (inactive) | > 100 µM (inactive) | > 100 µM (inactive) | > 100 µM (inactive) | > 100 µM (inactive) |  |  |
| CC(C)C(NC(=O)OC(C)(C)C)C(=O)N(C)C(Cc1ccccc1)C(=O)N(C)C(C(=O)N(C)C(C(=O)OCc1ccccc1)C(C)C)C(C)C (centres undefined) (Boc-V[NMeF][NMeV][NMeV]-OBn; configuration not given here) |  | > 100 µM (inactive) | 62.5 µM (inactive) |  |  | 72.8 µM (inactive) | > 100 µM (inactive) |  | 19.4 µM (inactive) |
| C[C@@](O)(/C=C/[C@H]1CC=CC(=O)O1)[C@@H](C[C@@H](O)\C=C/C=C\C=C\CO)OP(=O)(O)O [FOSTRIECIN SODIUM] | 13.2 µM (inactive) | 4.17 µM (inactive) | 13 µM (inactive) | 15 µM (inactive) |  | 6.19 µM (inactive) | 1.03 µM (active) |  | 52.5 µM (inactive) |
